Key:
Sphaerotheca fuliginea = assay: Cucumber Powdery Mildew (CPM) protectant test in the greenhouse; format: in vivo; conditions: 100 is total disease control, 0 is no disease control; for Cucumber Powdery Mildew (CPM) protectant fungicide data, percent control: 300 g/ha; for pest or weed control at 300 g/ha: Podosphaera fuliginea, topical, 168 h, read-out: Cucumber Powdery Mildew (CPM) protectant fungicide data, percent control
Outline: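 Compounds in acetone-methanol-water (1:1:2) sprayed onto cucumber cv. "Bush Champion" (cotyledons plus one true leaf, 13 days old), dried 4 h. Inoculated 1 day later with 2×10^5 spores/ml; disease control (%) rated after 7 days in greenhouse.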

Pyricularia oryzae = assay: whole plant or invertebrate; format: in vivo; conditions: 100 is total disease control, 0 is no disease control; for Rice Blast (RB) protectant fungicide data, percent control: 300 g/ha, greenhouse; for pest or weed control at 300 g/ha: Pyricularia oryzae, topical, 144 h, read-out: Rice Blast (RB) protectant fungicide data, percent control, protectant, 300 g/ha, greenhouse
Southern Armyworm = assay: Protocol 1 Southern Armyworm (AW) foliar spray test; format: in vivo, Spodoptera eridania
Description: (§1) A test solution containing 1250 parts per million (ppm) was prepared by dissolving the test compound in […] of a second solvent (acetone: water, 1:1) to give an acetone:water: methanol system of 50: 40:10.
(§2) The enclosed spraying chamber consisted of a single spray nozzle mounted on a boom moving at a fixed speed and distance over stationary targets. The vertical distance from the nozzle tip to the targets was adjusted to give rates varying from 150 g/ha to 600 g/ha
(§3) Individual fully expanded primary lima bean (Phaseolus limensis) leaves were placed bottom side up on moistened pieces of filter paper in Petri dishes. The leaves were sprayed with the test solutions and allowed to dry. The dishes were infested with 5 third instar larvae of the southern armyworm, covered with the lids, and held at 27° C. Armyworm control was rated by visual inspection after 48 hours. […] A rating of 0 indicated no dead larvae and normal feeding. Intermediate control was indicated by intermediate ratings.

Mexican Bean Beetle = assay: Protocol 1 Mexican Bean Beetle (BB) foliar spray test; format: in vivo, Epilachna verivestis; conditions: control rated after 48 hours (100 = all larvae dead)
Description: as §1, §2
as §3, with “mexican bean beetle,” for “southern armyworm,”, “Bean beetle” for “Armyworm”

Two-Spotted Spider Mite = assay: Protocol 1 Two-Spotted Spider Mite (MTA) foliar spray test; format: in vivo, Tetranychus urticae; conditions: percentage of mites killed 1-day post-treatment
Description: as §1, §2
A pad of moistened cotton was placed in a Petri dish. A 1-inch square section cut from a fully expanded primary lima bean (Phaseolus limensis) leaf was positioned bottom side up on the moist cotton. The leaf square was infested with approximately 50 adult female mites. The dishes were sprayed with the test solutions and held at 27° C. for mortality determination 1-day post-treatment. The percentage of mites killed were rated from 100% (all dead) to 0% (all alive).

In the case of O=c1cnc(C2CCCCC2)nn1CC(F)(F)F [Compound 251], the “Cucumber Powdery Mildew (CPM) protectant fungicide data, percent control” value (from here on “Cucumber Powdery Mildew … percent control”) (Sphaerotheca fuliginea) is reported as 0 percent control, the “Rice Blast (RB) protectant fungicide data, percent control” value (“Rice Blast … percent control” below) (Pyricularia oryzae) is reported as 75 percent control and the AW (Southern Armyworm; Protocol 1, DOSE 150) is reported as 0. It also gave a BB (Mexican Bean Beetle; Protocol 1, DOSE 150) of 50 and an MTA (Two-Spotted Spider Mite; Protocol 1, DOSE 150) of 75%.
For O=C1CNC(c2cccc(Cl)c2)=NN1CC(F)(F)F [Compound 37], the “Cucumber Powdery Mildew … percent control” value (Sphaerotheca fuliginea) was 75 percent control, the “Rice Blast … percent control” value (Pyricularia oryzae) was 95 percent control and the AW (Southern Armyworm; Protocol 1, DOSE 300) was 100. For the same compound, the BB (Mexican Bean Beetle; Protocol 1, DOSE 300) was 75 and the MTA (Two-Spotted Spider Mite; Protocol 1, DOSE 300) was 75%.
O=c1cnc(-c2ccccc2)nn1CC(F)(F)F [Compound 7, 1-(2,2,2-trifluoroethyl)-3-phenyl-1,2,4-triazin-6-one] showed a pest or weed control at 300 g/ha (Sphaerotheca fuliginea) of 75%, a pest or weed control at 300 g/ha (Pyricularia oryzae) of 95% and an AW (Southern Armyworm; Protocol 1, DOSE 300) of 0. For the same compound, the BB (Mexican Bean Beetle; Protocol 1, DOSE 300) was 100.
With CCCC(C)n1nc(-c2ccc(Cl)cc2)ncc1=O (stereo not drawn) [Compound 254] the “Cucumber Powdery Mildew … percent control” value (Sphaerotheca fuliginea) was 0 percent control, the “Rice Blast … percent control” value (Pyricularia oryzae) was 95 percent control and the AW (Southern Armyworm; Protocol 1, DOSE 150) was 0. For the same compound, the BB (Mexican Bean Beetle; Protocol 1, DOSE 150) was 100 and the MTA (Two-Spotted Spider Mite; Protocol 1, DOSE 150) was 100%.
With O=c1cnc(-c2ccc(Cl)cc2)nn1C1CCCCC1 [Compound 256] the “Rice Blast … percent control” value (Pyricularia oryzae) was 95 percent control, the AW (Southern Armyworm; Protocol 1, DOSE 150) was 0 and the BB (Mexican Bean Beetle; Protocol 1, DOSE 150) was 0. For the same compound, the MTA (Two-Spotted Spider Mite; Protocol 1, DOSE 150) was 90%.
In the case of CC(C)(C)N1N=C(c2ccc(Cl)cc2)NCC1=O [Compound 6, 1-t-Butyl-3-(4-chlorophenyl)-4,5-dihydro-1,2,4-triazin-6-one], the pest or weed control at 300 g/ha (Sphaerotheca fuliginea) is reported as 50%, the pest or weed control at 300 g/ha (Pyricularia oryzae) is reported as 90% and the AW (Southern Armyworm; Protocol 1, DOSE 300) is reported as 0. The BB (Mexican Bean Beetle; Protocol 1, DOSE 300) was 100.
With Cc1nc(-c2ccc(Cl)cc2)nn(CC(F)(F)F)c1=O [compound 239] the AW (Southern Armyworm; Protocol 1, DOSE 300) was 0, the BB (Mexican Bean Beetle; Protocol 1, DOSE 300) was 75 and the MTA (Two-Spotted Spider Mite; Protocol 1, DOSE 300) was 0%.
O=C1CNC(c2cc(Cl)cc(Cl)c2)=NN1CC1CC1 [Compound 109] was tested, and the “Cucumber Powdery Mildew … percent control” value (Sphaerotheca fuliginea) was 95 percent control, the “Rice Blast … percent control” value (Pyricularia oryzae) was 100 percent control and the MTA (Two-Spotted Spider Mite; Protocol 1, DOSE 150) was 90%.
For CCCSC1NC(c2ccc(Cl)cc2)=NN(CC(F)(F)F)C1=O (stereo not drawn) [Compound 19, 1-(2,2,2-trifluoroethyl)-3-(4-chlorophenyl)-5-propylthio-4,5-dihydro-1,2,4-triazin-6-one], the pest or weed control at 300 g/ha (Sphaerotheca fuliginea) was 75%, the pest or weed control at 300 g/ha (Pyricularia oryzae) was 100% and the AW (Southern Armyworm; Protocol 1, DOSE 150) was 0. For the same compound, the BB (Mexican Bean Beetle; Protocol 1, DOSE 150) was 100.
CCCCn1nc(-c2cc(Cl)cc(Cl)c2)ncc1=O [Compound 271] was tested, and the “Cucumber Powdery Mildew … percent control” value (Sphaerotheca fuliginea) was 50 percent control, the “Rice Blast … percent control” value (Pyricularia oryzae) was 99 percent control and the MTA (Two-Spotted Spider Mite; Protocol 1, DOSE 150) was 93%.
O=C1CNC(c2ccc(Cl)cc2)=NN1 [Compound 5, 3-(4-Chlorophenyl)-4,5-dihydro-1,2,4-triazin-6-one] showed a pest or weed control at 300 g/ha (Sphaerotheca fuliginea) of 50%, a pest or weed control at 300 g/ha (Pyricularia oryzae) of 75% and an AW (Southern Armyworm; Protocol 1, DOSE 600) of 50. It also gave a BB (Mexican Bean Beetle; Protocol 1, DOSE 300) of 75.
For C=COC(=O)N1CC(=O)N(CCCC)N=C1c1cc(Cl)cc(Cl)c1 [Compound 127], the “Cucumber Powdery Mildew … percent control” value (Sphaerotheca fuliginea) was 50 percent control, the “Rice Blast … percent control” value (Pyricularia oryzae) was 95 percent control and the MTA (Two-Spotted Spider Mite; Protocol 1, DOSE 150) was 95%.
O=C1CNC(c2ccc(Cl)cc2)=NN1CC(F)(F)F [Compound 4, 1-(2,2,2-trifluoroethyl)-3-(4-chlorophenyl)-4,5-dihydro-1,2,4-triazin-6-one] showed a pest or weed control at 300 g/ha (Sphaerotheca fuliginea) of 50%, a pest or weed control at 300 g/ha (Pyricularia oryzae) of 99% and an AW (Southern Armyworm; Protocol 1, DOSE 300) of 75. It also gave a BB (Mexican Bean Beetle; Protocol 1, DOSE 300) of 0.
With O=c1cnc(-c2ccc(Cl)cc2)nn1Cc1ccc(Cl)s1 [Compound 266] the “Cucumber Powdery Mildew … percent control” value (Sphaerotheca fuliginea) was 50 percent control, the “Rice Blast … percent control” value (Pyricularia oryzae) was 90 percent control and the MTA (Two-Spotted Spider Mite; Protocol 1, DOSE 150) was 0%.
With Cn1nc(-c2ccccc2)ncc1=O [compound 242] the AW (Southern Armyworm; Protocol 1, DOSE 300) was 0, the BB (Mexican Bean Beetle; Protocol 1, DOSE 300) was 90 and the MTA (Two-Spotted Spider Mite; Protocol 1, DOSE 300) was 100%.
CCCCN1N=C(c2ccc(F)c(F)c2)NCC1=O [Compound 69] was tested, and the “Cucumber Powdery Mildew … percent control” value (Sphaerotheca fuliginea) was 80 percent control, the “Rice Blast … percent control” value (Pyricularia oryzae) was 95 percent control and the MTA (Two-Spotted Spider Mite; Protocol 1, DOSE 150) was 68%.

Source: patent US7494996B2 (priority 2000, dated 2009)
